Results published in patent US20130143929A1, “FUNGICIDAL IMIDAZOLES” (EI DU PONT DE NEMOURS AND COMPANY, priority 2010, published 2013).
Marks after values point to notes of the source that are not given here.

Tests used:
Type in all cases: in vivo
[1] = tested on: Puccinia recondite f. sp. tritici (the causal agent of wheat leaf rust); assay: Test A: wheat leaf rust, preventive spray on wheat seedlings, visual disease rating; settings: for Test A rating (100 = 100% disease control, 0 = no disease control relative to the controls): wheat leaf rust, preventive spray on wheat seedlings; for Test A rating (% disease control, wheat leaf rust): no asterisk: standard test suspension concentration, 100 = 100% disease control, 0 = no control relative to controls
How it was run: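 This was a preventive test: Puccinia recondite f. sp. tritici inoculum was applied one day after compound spray to run-off. Test suspensions were made in 50/50 acetone/water with 250 ppm surfactant, at 200 ppm (800 g/ha equivalent) or 40 ppm. Visual ratings of % disease control relative to controls were made after 24 h of saturated humidity and 7 growth-chamber days, all at 20° C.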

[2] = tested on: Septoria tritici (the causal agent of wheat leaf blotch); assay: Test B: wheat leaf blotch, preventive spray on wheat seedlings, visual disease rating; settings: for Test B rating (100 = 100% disease control, 0 = no disease control relative to the controls): wheat leaf blotch, preventive spray on wheat seedlings; for Test B rating (% disease control, wheat leaf blotch): no asterisk: standard test suspension concentration, 100 = 100% disease control, 0 = no control relative to controls
How it was run: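 Preventive test: Septoria tritici spores applied one day after run-off spraying of seedlings (200 ppm equals 800 g/ha; some tests 40 ppm). After 48 h at 24 °C saturated atmosphere and 19 days at 20 °C, disease scored visually as % control relative to untreated plants.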

[3] = tested on: Botrytis cinerea (the causal agent of tomato Botrytis); assay: Test C: tomato Botrytis, preventive spray on tomato seedlings, visual disease rating; settings: for Test C rating (100 = 100% disease control, 0 = no disease control relative to the controls): tomato Botrytis, preventive spray on tomato seedlings; for Test C rating (% disease control, tomato Botrytis): no asterisk: standard test suspension concentration, 100 = 100% disease control, 0 = no control relative to controls
How it was run: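 Preventive test: B. cinerea spore inoculation one day after tomato seedlings were sprayed to run-off with compound suspended in 50/50 acetone–water plus 250 ppm surfactant. Plants held 48 h at 20° C in saturated air, then 3 days at 24° C; visual ratings scored 100 (full control) to 0 versus controls; some entries used 40 ppm.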

[4] = tested on: Blumeria graminis f. sp. tritici (also known as Erysiphe graminis f. sp. tritici, the causal agent of wheat powdery mildew); assay: Test D: wheat powdery mildew, preventive spray on wheat seedlings, visual disease rating; settings: for Test D rating (100 = 100% disease control, 0 = no disease control relative to the controls): wheat powdery mildew, preventive spray on wheat seedlings; for Test D rating (% disease control, wheat powdery mildew): no asterisk: standard test suspension concentration, 100 = 100% disease control, 0 = no control relative to controls
How it was run: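 Preventive test: seedlings sprayed to run-off and inoculated with powdery mildew spores one day later. Suspensions were made in 50/50 acetone/water with 250 ppm Trem 014 surfactant (200 ppm equals 800 g/ha). Visual ratings after 8 days at 20 °C give percent disease control versus controls.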

[5] = asterisk: 40 ppm test suspension
[6] = no asterisk (standard test suspension concentration, not 40 ppm)

## COc1ccc(C(O)c2c(Cl)nc(C)n2-c2c(F)cc(F)cc2Br)c(Cl)c1 (racemic) [compound 231]
[1]; [5]
  Test A rating (100 = 100% disease control, 0 = no disease control relative to the controls): 100* %
[2]; [5]
  Test B rating (100 = 100% disease control, 0 = no disease control relative to the controls): 100* %
[3]; [5]
  Test C rating (100 = 100% disease control, 0 = no disease control relative to the controls): 99* %
[4]; [5]
  Test D rating (100 = 100% disease control, 0 = no disease control relative to the controls): 98* %

## Cc1ncc(C(O)c2ccc(F)cc2F)n1-c1ccc(F)cc1F (centres unmarked) [compound 381]
[1]
  Test A rating (% disease control, wheat leaf rust): 88%
[2]
  Test B rating (% disease control, wheat leaf blotch): 97%
[3]
  Test C rating (% disease control, tomato Botrytis): 0%
[4]
  Test D rating (% disease control, wheat powdery mildew): 0%

## Cc1cc(F)ccc1C(O)c1c(Br)nc(C)n1-c1ccc(F)cc1F (centres unmarked) [compound 379]
[1]
  Test A rating (% disease control, wheat leaf rust): 100%
[2]
  Test B rating (% disease control, wheat leaf blotch): 100%
[3]
  Test C rating (% disease control, tomato Botrytis): 99%
[4]
  Test D rating (% disease control, wheat powdery mildew): 79%

## Cc1nc(Cl)c(C(O)c2ccc(F)cc2Br)n1-c1c(F)cc(F)cc1Br (centres unmarked) [compound 70]
[1]; [5]
  Test A rating (100 = 100% disease control, 0 = no disease control relative to the controls): 100* %
[2]; [5]
  Test B rating (100 = 100% disease control, 0 = no disease control relative to the controls): 100* %
[3]; [5]
  Test C rating (100 = 100% disease control, 0 = no disease control relative to the controls): 99* %
[4]; [5]
  Test D rating (100 = 100% disease control, 0 = no disease control relative to the controls): 43* %

## Cc1nc(Br)c(C(O)c2c(F)cc(F)cc2F)n1-c1ccc(F)cc1Cl (centres unmarked) [compound 141]
[1]; [6]
  Test A rating (100 = 100% disease control, 0 = no disease control relative to the controls): 100%
[2]; [6]
  Test B rating (100 = 100% disease control, 0 = no disease control relative to the controls): 100%
[3]; [6]
  Test C rating (100 = 100% disease control, 0 = no disease control relative to the controls): 99%
[4]; [6]
  Test D rating (100 = 100% disease control, 0 = no disease control relative to the controls): 96%

## Cc1nc(Br)c(C(O)c2ccc(F)cc2Br)n1-c1ccc(F)cc1F (centres unmarked) [compound 309]
[1]; [5]
  Test A rating (100 = 100% disease control, 0 = no disease control relative to the controls): 100* %
[2]; [5]
  Test B rating (100 = 100% disease control, 0 = no disease control relative to the controls): 100* %
[3]; [5]
  Test C rating (100 = 100% disease control, 0 = no disease control relative to the controls): 65* %
[4]; [5]
  Test D rating (100 = 100% disease control, 0 = no disease control relative to the controls): 64* %

## Cc1nc(Cl)n(-c2c(F)cc(F)cc2Br)c1C(O)c1ccc(F)cc1F (single isomer, unassigned) [compound 16]
[1]; [6]
  Test A rating (100 = 100% disease control, 0 = no disease control relative to the controls): 100%
[2]; [6]
  Test B rating (100 = 100% disease control, 0 = no disease control relative to the controls): 100%
[3]; [6]
  Test C rating (100 = 100% disease control, 0 = no disease control relative to the controls): 100%
[4]; [6]
  Test D rating (100 = 100% disease control, 0 = no disease control relative to the controls): 100%

## Cc1nc(Br)c(C(O)c2ccc(F)cc2Br)n1-c1ccc(F)cc1Cl (racemic) [compound 253]
[1]; [6]
  Test A rating (100 = 100% disease control, 0 = no disease control relative to the controls): 100%
[2]; [6]
  Test B rating (100 = 100% disease control, 0 = no disease control relative to the controls): 100%
[3]; [6]
  Test C rating (100 = 100% disease control, 0 = no disease control relative to the controls): 100%
[4]; [6]
  Test D rating (100 = 100% disease control, 0 = no disease control relative to the controls): 27%

## OC(c1ccc(F)cc1F)c1c(Br)ncn1-c1ccc(F)cc1Cl (centres unmarked) [compound 63]
[1]; [6]
  Test A rating (100 = 100% disease control, 0 = no disease control relative to the controls): 96%
[2]; [6]
  Test B rating (100 = 100% disease control, 0 = no disease control relative to the controls): 59%
[3]; [6]
  Test C rating (100 = 100% disease control, 0 = no disease control relative to the controls): 98%
[4]; [6]
  Test D rating (100 = 100% disease control, 0 = no disease control relative to the controls): 0%

## Cc1cc(F)ccc1C(O)c1c(Br)nc(C)n1-c1c(Cl)cccc1Cl (centres unmarked) [compound 367]
[1]; [6]
  Test A rating (100 = 100% disease control, 0 = no disease control relative to the controls): 98%
[2]; [6]
  Test B rating (100 = 100% disease control, 0 = no disease control relative to the controls): 100%
[3]; [6]
  Test C rating (100 = 100% disease control, 0 = no disease control relative to the controls): 96%
[4]; [6]
  Test D rating (100 = 100% disease control, 0 = no disease control relative to the controls): 96%

## Cc1nc(Br)n(-c2c(F)cc(F)cc2Cl)c1C(O)c1ccc(F)cc1F (racemic) [compound 250]
[1]; [5]
  Test A rating (100 = 100% disease control, 0 = no disease control relative to the controls): 100* %
[2]; [5]
  Test B rating (100 = 100% disease control, 0 = no disease control relative to the controls): 100* %
[3]; [5]
  Test C rating (100 = 100% disease control, 0 = no disease control relative to the controls): 100* %
[4]; [5]
  Test D rating (100 = 100% disease control, 0 = no disease control relative to the controls): 100* %
